In patent US20130157954A1, “METHODS FOR TREATMENT OR PROPHYLAXIS OF KIDNEY OR LIVER DYSFUNCTION” (NPS PHARMACEUTICALS, INC., priority 2010, published 2013):

Assay: Example 1: kidney biomarkers (urea nitrogen, creatinine, GFR) in short bowel syndrome patients, every four weeks for 24 weeks; also sorted by >5% change from baseline
Format: in vivo, Human
Conditions: for CREATININE (RATE BLANKED) change from baseline −5% <= and <=5%, number of patients / CREATININE (RATE BLANKED) change from baseline −5% <= and <=5%, percent of patients / GFR change from baseline <−5%, number of patients / GFR change from baseline <−5%, percent of patients / GFR change from baseline >5%, number of patients / GFR change from baseline >5%, percent of patients / GFR change from baseline −5% <= and <=5%, number of patients / GFR change from baseline −5% <= and <=5%, percent of patients / UREA NITROGEN change from baseline <−5%, number of patients / UREA NITROGEN change from baseline <−5%, percent of patients / UREA NITROGEN change from baseline >5%, number of patients / UREA NITROGEN change from baseline >5%, percent of patients / UREA NITROGEN change from baseline −5% <= and <=5%, number of patients / UREA NITROGEN change from baseline −5% <= and <=5%, percent of patients / CREATININE (RATE BLANKED) change from baseline <−5%, number of patients / CREATININE (RATE BLANKED) change from baseline <−5%, percent of patients / CREATININE (RATE BLANKED) change from baseline >5%, number of patients / CREATININE (RATE BLANKED) change from baseline >5%, percent of patients: 0.1 mg/kg/day
Method: Human patients with short bowel syndrome were divided into three groups: a control group (16 total individuals) to receive placebo, an experimental group (35 total individuals) to receive teduglutide at 0.05 mg/kg/day throughout the study, and an experimental group (32 total individuals) to receive teduglutide at 0.1 mg/kg/day throughout the study. Patients were treated by subcutaneous injection of placebo or the appropriate dose of teduglutide. As individuals with short bowel syndrome are likely to experience associated liver and kidney disease, known biomarkers of liver and kidney function were monitored every four weeks, for 24 weeks. The liver biomarkers tested included total bilirubin, ALT and AST and ALP. The kidney biomarkers tested included urea nitrogen, creatinine and GFR. Before administration of placebo or teduglutide, diagnostic biomarker levels were tested to establish a baseline for each individual.
To visualize the effect of GLP-2 on the levels of the diagnostic biomarkers, the average change from baseline was calculated for the placebo and teduglutide treated groups for each visit after a baseline was established. The average change from baseline of each group is depicted in FIGS. 1-7. The numerical figures for each diagnostic biomarker at each time point are depicted in Table 1.
The raw data for this sorting is reproduced in Table 2 below.

CC[C@H](C)[C@H](NC(=O)[C@H](Cc1ccccc1)NC(=O)[C@H](CC(=O)O)NC(=O)[C@H](CCCNC(=N)N)NC(=O)[C@H](C)NC(=O)[C@H](C)NC(=O)[C@H](CC(C)C)NC(=O)[C@H](CC(N)=O)NC(=O)[C@H](CC(=O)O)NC(=O)[C@H](CC(C)C)NC(=O)[C@@H](NC(=O)[C@@H](NC(=O)[C@H](CC(N)=O)NC(=O)[C@H](CCSC)NC(=O)[C@H](CCC(=O)O)NC(=O)[C@H](CC(=O)O)NC(=O)[C@H](CO)NC(=O)[C@H](Cc1ccccc1)NC(=O)[C@H](CO)NC(=O)CNC(=O)[C@H](CC(=O)O)NC(=O)CNC(=O)[C@@H](N)Cc1c[nH]cn1)[C@@H](C)O)[C@@H](C)CC)C(=O)N[C@@H](CC(N)=O)C(=O)N[C@@H](Cc1c[nH]c2ccccc12)C(=O)N[C@@H](CC(C)C)C(=O)N[C@H](C(=O)N[C@@H](CCC(N)=O)C(=O)N[C@H](C(=O)N[C@@H](CCCCN)C(=O)N[C@H](C(=O)N[C@H](C(=O)N[C@@H](CC(=O)O)C(=O)O)[C@@H](C)O)[C@@H](C)CC)[C@@H](C)O)[C@@H](C)CC [teduglutide]
CREATININE (RATE BLANKED) change from baseline −5% <= and <=5%, number of patients (week 12): 4
CREATININE (RATE BLANKED) change from baseline −5% <= and <=5%, percent of patients (week 12): (12.5%)
GFR change from baseline <−5%, number of patients (week 12): 11
GFR change from baseline <−5%, percent of patients (week 12): (34.4%)
GFR change from baseline >5%, number of patients (week 12): 9
GFR change from baseline >5%, percent of patients (week 12): (28.1%)
GFR change from baseline −5% <= and <=5%, number of patients (week 12): 10
GFR change from baseline −5% <= and <=5%, percent of patients (week 12): (31.3%)
UREA NITROGEN change from baseline <−5%, number of patients (week 12): 13
UREA NITROGEN change from baseline <−5%, percent of patients (week 12): (40.6%)
UREA NITROGEN change from baseline >5%, number of patients (week 12): 14
UREA NITROGEN change from baseline >5%, percent of patients (week 12): (43.8%)
UREA NITROGEN change from baseline −5% <= and <=5%, number of patients (week 12): 3
UREA NITROGEN change from baseline −5% <= and <=5%, percent of patients (week 12): (9.4%)
CREATININE (RATE BLANKED) change from baseline <−5%, number of patients (week 16): 10
CREATININE (RATE BLANKED) change from baseline <−5%, percent of patients (week 16): (31.3%)
CREATININE (RATE BLANKED) change from baseline >5%, number of patients (week 16): 12
CREATININE (RATE BLANKED) change from baseline >5%, percent of patients (week 16): (37.5%)
CREATININE (RATE BLANKED) change from baseline −5% <= and <=5%, number of patients (week 16): 8
CREATININE (RATE BLANKED) change from baseline −5% <= and <=5%, percent of patients (week 16): (25.0%)
GFR change from baseline <−5%, number of patients (week 16): 12
GFR change from baseline <−5%, percent of patients (week 16): (37.5%)
GFR change from baseline >5%, number of patients (week 16): 12
GFR change from baseline >5%, percent of patients (week 16): (37.5%)
GFR change from baseline −5% <= and <=5%, number of patients (week 16): 6
GFR change from baseline −5% <= and <=5%, percent of patients (week 16): (18.8%)
UREA NITROGEN change from baseline <−5%, number of patients (week 16): 9
UREA NITROGEN change from baseline <−5%, percent of patients (week 16): (28.1%)
UREA NITROGEN change from baseline >5%, number of patients (week 16): 9
UREA NITROGEN change from baseline >5%, percent of patients (week 16): (28.1%)
UREA NITROGEN change from baseline −5% <= and <=5%, number of patients (week 16): 12
UREA NITROGEN change from baseline −5% <= and <=5%, percent of patients (week 16): (37.5%)
CREATININE (RATE BLANKED) change from baseline <−5%, number of patients (week 20): 7
CREATININE (RATE BLANKED) change from baseline <−5%, percent of patients (week 20): (21.9%)
CREATININE (RATE BLANKED) change from baseline >5%, number of patients (week 20): 13
CREATININE (RATE BLANKED) change from baseline >5%, percent of patients (week 20): (40.6%)
CREATININE (RATE BLANKED) change from baseline −5% <= and <=5%, number of patients (week 20): 9
CREATININE (RATE BLANKED) change from baseline −5% <= and <=5%, percent of patients (week 20): (28.1%)
GFR change from baseline <−5%, number of patients (week 20): 11
GFR change from baseline <−5%, percent of patients (week 20): (34.4%)
GFR change from baseline >5%, number of patients (week 20): 8
GFR change from baseline >5%, percent of patients (week 20): (25.0%)
GFR change from baseline −5% <= and <=5%, number of patients (week 20): 10
GFR change from baseline −5% <= and <=5%, percent of patients (week 20): (31.3%)
UREA NITROGEN change from baseline <−5%, number of patients (week 20): 12
UREA NITROGEN change from baseline <−5%, percent of patients (week 20): (37.5%)
UREA NITROGEN change from baseline >5%, number of patients (week 20): 11
UREA NITROGEN change from baseline >5%, percent of patients (week 20): (34.4%)
UREA NITROGEN change from baseline −5% <= and <=5%, number of patients (week 20): 6
UREA NITROGEN change from baseline −5% <= and <=5%, percent of patients (week 20): (18.8%)
CREATININE (RATE BLANKED) change from baseline <−5%, number of patients (week 24): 11
CREATININE (RATE BLANKED) change from baseline <−5%, percent of patients (week 24): (34.4%)
CREATININE (RATE BLANKED) change from baseline >5%, number of patients (week 24): 9
CREATININE (RATE BLANKED) change from baseline >5%, percent of patients (week 24): (28.1%)
CREATININE (RATE BLANKED) change from baseline −5% <= and <=5%, number of patients (week 24): 9
CREATININE (RATE BLANKED) change from baseline −5% <= and <=5%, percent of patients (week 24): (28.1%)
GFR change from baseline <−5%, number of patients (week 24): 6
GFR change from baseline <−5%, percent of patients (week 24): (18.8%)
GFR change from baseline >5%, number of patients (week 24): 14
GFR change from baseline >5%, percent of patients (week 24): (43.8%)
GFR change from baseline −5% <= and <=5%, number of patients (week 24): 9
GFR change from baseline −5% <= and <=5%, percent of patients (week 24): (28.1%)
UREA NITROGEN change from baseline <−5%, number of patients (week 24): 14
UREA NITROGEN change from baseline <−5%, percent of patients (week 24): (43.8%)
UREA NITROGEN change from baseline >5%, number of patients (week 24): 13
UREA NITROGEN change from baseline >5%, percent of patients (week 24): (40.6%)
UREA NITROGEN change from baseline −5% <= and <=5%, number of patients (week 24): 2
UREA NITROGEN change from baseline −5% <= and <=5%, percent of patients (week 24): (6.3%)
percent of the group experiencing a decrease in GFR greater than 5% vs placebo (both groups receiving teduglutide): always less than the percent of the group receiving placebo
creatinine levels, average change versus baseline (FIG. 9) (groups receiving teduglutide, placebo increased): remained stable or decreased slightly
